Data reported in patent US9765037B2, “Compositions and methods for treating toxoplasmosis, cryptosporidiosis, and other apicomplexan protozoan related diseases” (University of Washington Through its Center for …, priority 2010, dated 2017).
Where two headings read alike, the source gives them in different places.

Assays:
CpCDPK1 = CpCDPK1 (Cryptosporidium parvum (strain Iowa II), UniProt A3FQ16); experiment: biochemical; format: biochemical; details: read-out: IC50 (μM) CpCDPK1
SrcKD = SrcKD (Homo sapiens (Human), UniProt P12931); experiment: Tyrosine kinase IC50, SrcKD; format: biochemical
SRC = SRC (Homo sapiens (Human), UniProt P12931); details: for IC50: read-out: IC50 (μM) Src
glioma derived (SF539) = experiment: Growth inhibition of human cell line SF539; details: for GI50: read-out: GI50 (μM) SF539
[1] = test system: human promyelocytic leukemia (HL-60); experiment: Growth inhibition of human cell line HL-60; details: for GI50: read-out: GI50 (μM) HL60
[2] = test system: human lymphocyte (CRL8155); experiment: Growth inhibition of human cell line CRL8155; details: for GI50: read-out: GI50 (μM) CRL8155
[3] = test system: colorectal carcinoma (HC 2998); experiment: Growth inhibition of human cell line HC 2998; details: for GI50: read-out: GI50 (μM) HCC2998
ABL = ABL (Homo sapiens (Human), UniProt P00519); format: biochemical
AblKD = AblKD (Homo sapiens (Human), UniProt P00519); experiment: Tyrosine kinase IC50, AblKD; format: biochemical; details: Table 9
HckKD = HckKD (Homo sapiens (Human), UniProt P08631); experiment: Tyrosine kinase IC50, HckKD; format: biochemical; details: Table 9
PfCDPK4 = PfCDPK4 (Plasmodium falciparum (isolate 3D7), UniProt Q8IBS5); experiment: biochemical
PfCDPK1 = PfCDPK1 (Plasmodium falciparum (isolate 3D7), UniProt P62344); experiment: biochemical
in vivo = details: mouse, ip
Src3D = Src3D (Homo sapiens (Human), UniProt P12931); experiment: biochemical
[4] = Blood levels after oral gavage dosing of mice (LC-MS); details: mouse, in vivo, po

Row | Structure (SMILES) | IC50 (CpCDPK1) [µM] | IC50 (SrcKD) [µM] | IC50 (SRC) [µM] | GI50 (glioma derived (SF539); human cell line SF539) [µM] | GI50 ([1]; human cell line HL60) [µM] | GI50 ([2]; human cell line CRL8155) [µM] | GI50 ([3]; human cell line HCC2998) [µM] | IC50 (HckKD) [µM] | EC50 (PfCDPK4) [nM] | Cell Toxicity SF539, % at 10 μM (glioma derived (SF539)) [% at 10 μM] | Cell Toxicity HL60, % at 10 μM [1] | Cell Toxicity CRL8155, % at 10 μM [2] | Cell Toxicity HCC2998, % at 10 μM [3] [% at 10 μM] | EC50 (PfCDPK1) [nM] | IC50 (Src3D) [nM] | IC50 (CpCDPK1; Table 8) [µM] | further results
1 | CC(C)(C)n1nc(-c2cccc3ccccc23)c2c(N)ncnc21 [Compound 1, 1-tert-butyl-3-(naphthalen-1-yl)-1H-pyrazolo[3,4-d]pyrimidin-4-amine] | > 3 | 1.3 | 1.3 | > 10 | > 10 | > 10 | > 10 |  |  |  |  |  |  |  |  |  | inhibition of SRC (in words) (SRC): do not potently inhibit
2 | Nc1ncnc2c1c(Cc1cccc3ccccc13)nn2CC1CCNCC1 [Compound 5h, 3-(naphthalen-1-ylmethyl)-1-(piperidin-4-ylmethyl)-1H-pyrazolo[3,4-d]pyrimidin-4-amine] |  |  | > 20 | > 10 | > 10 | > 10 | > 10 | > 10 | 154 | <30 | <30% at 10 μM | <30% at 10 μM | <30 |  |  |  | IC50 (ABL): > 20 µM; IC50 (SrcKD; Table 9): > 20 µM; IC50 (AblKD): > 20 µM
3 | COc1ccc2cc(-c3nn(C(C)C)c4ncnc(N)c34)ccc2c1 [Compound 7q, 1-isopropyl-3-(6-methoxynaphthalen-2-yl)-1H-pyrazolo[3,4-d]pyrimidin-4-amine] | 0.005 | 0.77 | 0.77 |  |  |  |  | 0.375 | 41.4 | <30 | <30% at 10 μM | <30% at 10 μM | <30 | 208 | 576 |  | AUC (in vivo): 4.6 µM·h; Cmax (in vivo): 3.8 µM; Tmax (in vivo): 30 min; GI50 (glioma derived (SF539)): > 10 µM; GI50 [1]: > 10 µM; GI50 [2]: > 10 µM; GI50 [3]: > 10 µM; AUC [4]: 35.3 µM·h; Cmax [4]: 19.7 µM; Tmax [4]: 30 min
4 | CC(C)n1nc(-c2cc3ccccc3[nH]2)c2c(N)ncnc21 [Compound 24, 3-(1H-indol-2-yl)-1-isopropyl-1H-pyrazolo[3,4-d]pyrimidin-4-amine] |  |  |  |  |  |  |  |  | 337 |  |  |  |  | 471 | 1450 | 0.0704 | 
5 | CC(C)n1nc(-c2cc3c(Cl)cccc3[nH]2)c2c(N)ncnc21 [Compound 26, 3-(4-chloro-1H-indol-2-yl)-1-isopropyl-1H-pyrazolo[3,4-d]pyrimidin-4-amine] |  |  |  |  |  |  |  |  | 544 |  | 45% toxicity at | 38% toxicity at |  |  | 1240 | 0.0162 | 
